Here are results for four sequences from patent publication US20070128217A1 (priority 2003, published 2007).

Assay [1] relates to control sera (pooled serum of ten healthy LUMC hospital workers; commercial negative donor pooled serum from the Dutch bloodbank). The class given is binding, human. Also noted: Binding of Control serum LUMC to linear peptides / Binding of Control serum Blood-bank to linear peptides / Binding of Control serum LUMC to looped peptides / Binding of Control Serum Blood-Bank to Looped peptides / Binding of Control serum LUMC to linear peptides of the protein M of SARS-CoV Urbani / Binding of Control serum Blood-bank to linear peptides of the protein M of SARS-CoV Urbani / Binding of Control serum LUMC to looped peptides of the protein M of SARS-CoV Urbani / Binding of Control Serum Blood-Bank to Looped peptides of the protein M of SARS-CoV Urbani: unit not given here.

The subject of assay [2] is antibodies in sera from SARS patients (sera 1a, 1b, 2, 6, 37, 62, London, SARS-yellow, SARS-green). The class given is binding, human. On the set-up: Binding of serum 6 to linear peptides of protein X1 of SARS-CoV Urbani / Binding of serum 37 to linear peptides of protein X1 of SARS-CoV Urbani / Binding of serum 6 to looped/cyclic peptide (PEPSCAN-ELISA) / Binding of serum 37 to looped/cyclic peptide (PEPSCAN-ELISA) / Binding of serum 37 to looped/cyclic peptides of protein X1 of SARS-CoV Urbani / Binding of serum 6 to linear peptides of protein X2 / Binding of serum 37 to linear peptides of protein X2 / Binding of serum 37 to looped/cyclic peptides of protein X2 of SARS-CoV Urbani / Binding of serum 6 to linear peptides of protein M of SARS-CoV Urbani / Binding of serum 37 to linear peptides of protein M of SARS-CoV Urbani / Binding of serum 6 to looped/cyclic peptides of protein M of SARS-CoV Urbani / Binding of serum 37 to looped/cyclic peptides of protein M of SARS-CoV Urbani / Binding of serum 6 to linear peptides of protein X3 of SARS-CoV Urbani / Binding of serum 37 to linear peptides of protein X3 of SARS-CoV Urbani / Binding of serum 37 to looped/cyclic peptides of protein X3 of SARS-CoV Urbani / Binding of serum 6 to linear peptides of protein X4 of SARS-CoV Urbani / Binding of serum 37 to linear peptides of protein X4 of SARS-CoV Urbani / Binding of serum 37 to looped/cyclic peptides of protein X4 of SARS-CoV Urbani / Binding of serum 6 to linear peptides of protein X5 of SARS-CoV Urbani / Binding of serum 37 to linear peptides of protein X5 of SARS-CoV Urbani / Binding of serum 37 to looped/cyclic peptides of protein X5 of SARS-CoV Urbani / Binding of serum 6 to linear peptides of protein N of SARS-CoV Urbani / Binding of serum 37 to linear peptides of protein N of SARS-CoV Urbani / Binding of serum 6 to linear peptide (PEPSCAN-ELISA) / Binding of serum 1a to looped/cyclic peptides of protein N of SARS-CoV Urbani / Binding of serum 1b to looped/cyclic peptides of protein N of SARS-CoV Urbani / Binding of serum 2 to looped/cyclic peptides of protein N of SARS-CoV Urbani / Binding of serum 6 to looped/cyclic peptides of protein N of SARS-CoV Urbani / Binding of serum 37 to looped/cyclic peptides of protein N of SARS-CoV Urbani / Binding of serum 62 to looped/cyclic peptides of protein N of SARS-CoV Urbani / Binding of serum London to looped/cyclic peptides of protein N of SARS-CoV Urbani / Binding of serum SARS-green to looped/cyclic peptides of protein N of SARS-CoV Urbani: unit not given here.

Assay [3] has as its system rabbit serum obtained by immunizing a rabbit with the SARS-CoV strain Frankfurt 1. The class given is binding. On the set-up: Binding of a rabbit serum to linear peptides / Binding of a rabbit serum to looped peptides / Rabbit serum linear peptides / Rabbit serum looped peptides / Binding of a rabbit serum to linear peptides of protein N of SARS-CoV Urbani (Rabbit serum linear peptides) / Binding of a rabbit serum to looped/cyclic peptides of protein N of SARS-CoV Urbani (Rabbit serum looped peptides): unit not given here.

Regarding CELYHYQECVRGTTV, in assay [1], the “Binding of Control Serum Blood-Bank to Looped peptides” value is 0.5, the “Binding of Control serum Blood-bank to linear peptides” value is reported as 0.5, the “Binding of Control serum LUMC to linear peptides” value is listed as 0.5 and the “Binding of Control serum LUMC to looped peptides” value was determined as 0.6. In assay [2], the “Binding of serum 1a to linear peptides of protein X4 of SARS-CoV Urbani” value worked out at 0.8, the “Binding of serum 1a to looped/cyclic peptides of protein X4 of SARS-CoV Urbani” value was 0.8, the “Binding of serum 1b to linear peptides of protein X4 of SARS-CoV Urbani” value is recorded as 0.7 and the “Binding of serum 1b to looped/cyclic peptides of protein X4 of SARS-CoV Urbani” value amounted to 0.4. In assay [2], the “Binding of serum 2 to linear peptides of protein X4 of SARS-CoV Urbani” value was 0.5, the “Binding of serum 2 to looped/cyclic peptides of protein X4 of SARS-CoV Urbani” value is listed as 0.8, the “Binding of serum 6 to linear peptides of protein X4 of SARS-CoV Urbani” value turned out to be 0.6 and the “Binding of serum 6 to looped/cyclic peptides of protein X4 of SARS-CoV Urbani” value is listed as 0.5. Also, in assay [2], the “Binding of serum 37 to linear peptides of protein X4 of SARS-CoV Urbani” value was determined as 0.9, the “Binding of serum 37 to looped/cyclic peptides of protein X4 of SARS-CoV Urbani” value came out at 0.8, the “Binding of serum 62 to linear peptides of protein X4 of SARS-CoV Urbani” value was found to be 0.8 and the “Binding of serum 62 to looped/cyclic peptides of protein X4 of SARS-CoV Urbani” value was 0.6. Also, in assay [2], the “Binding of serum London to linear peptides of protein X4 of SARS-CoV Urbani” value is reported as 0.9, the “Binding of serum London to looped/cyclic peptides of protein X4 of SARS-CoV Urbani” value is 0.3, the “Binding of serum SARS-green to linear peptides of protein X4 of SARS-CoV Urbani” value is 0.7 and the “Binding of serum SARS-green to looped/cyclic peptides of protein X4 of SARS-CoV Urbani” value is reported as 0.2. For the same sequence, in assay [2], the “Binding of serum SARS-yellow to linear peptides of protein X4 of SARS-CoV Urbani” value was determined as 0.6 and the “Binding of serum SARS-yellow to looped/cyclic peptides of protein X4 of SARS-CoV Urbani” value is 0.4. For the same sequence, in assay [3], the “Rabbit serum linear peptides” value turned out to be 0.4 and the “Rabbit serum looped peptides” value is 0.2.
With CINACRIIMRCWLCW, in assay [1], the “Binding of Control Serum Blood-Bank to Looped peptides” value was 0.8, the “Binding of Control serum Blood-bank to linear peptides” value turned out to be 0.7, the “Binding of Control serum LUMC to linear peptides” value turned out to be 0.8 and the “Binding of Control serum LUMC to looped peptides” value is on record as 0.7. In assay [2], the “Binding of serum 1a to linear peptides of protein X1 of SARS-CoV Urbani” value is reported as 0.8, the “Binding of serum 1a to looped/cyclic peptide (PEPSCAN-ELISA)” value is 0.7, the “Binding of serum 1b to linear peptides of protein X1 of SARS-CoV Urbani” value was determined as 0.5 and the “Binding of serum 1b to looped/cyclic peptide (PEPSCAN-ELISA)” value came out at 0.4. In assay [2], the “Binding of serum 2 to linear peptides of protein X1 of SARS-CoV Urbani” value worked out at 0.5, the “Binding of serum 2 to looped/cyclic peptide (PEPSCAN-ELISA)” value stood at 0.6, the “Binding of serum 6 to linear peptides of protein X1 of SARS-CoV Urbani” value was found to be 0.7 and the “Binding of serum 6 to looped/cyclic peptide (PEPSCAN-ELISA)” value was found to be 0.7. Moreover, in assay [2], the “Binding of serum 37 to linear peptides of protein X1 of SARS-CoV Urbani” value was found to be 0.6, the “Binding of serum 37 to looped/cyclic peptide (PEPSCAN-ELISA)” value turned out to be 0.6, the “Binding of serum 62 to linear peptides of protein X1 of SARS-CoV Urbani” value was determined as 0.7 and the “Binding of serum 62 to looped/cyclic peptide (PEPSCAN-ELISA)” value came out at 0.7. Moreover, in assay [2], the “Binding of serum London to linear peptides of protein X1 of SARS-CoV Urbani” value is reported as 0.4, the “Binding of serum London to looped/cyclic peptide (PEPSCAN-ELISA)” value stood at 0.8, the “Binding of serum SARS-green to linear peptides of protein X1 of SARS-CoV Urbani” value is reported as 0.2 and the “Binding of serum SARS-green to looped/cyclic peptide (PEPSCAN-ELISA)” value is given as 0.3. Further, in assay [2], the “Binding of serum SARS-yellow to linear peptides of protein X1 of SARS-CoV Urbani” value worked out at 0.4 and the “Binding of serum SARS-yellow to looped/cyclic peptide (PEPSCAN-ELISA)” value turned out to be 0.5. Also, the “Recognition of the peptide by the rabbit serum” value in assay [3] is given as “recognized”.
Consider CIVGLMWLSYFVASF, for which, in assay [1], the “Binding of Control Serum Blood-Bank to Looped peptides of the protein M of SARS-CoV Urbani” value stood at 0.6, the “Binding of Control serum Blood-bank to linear peptides of the protein M of SARS-CoV Urbani” value is reported as 0.4, the “Binding of Control serum LUMC to linear peptides of the protein M of SARS-CoV Urbani” value is 0.5 and the “Binding of Control serum LUMC to looped peptides of the protein M of SARS-CoV Urbani” value came out at 0.7. In addition, in assay [2], the “Binding of serum 1a to linear peptides of protein M of SARS-CoV Urbani” value was 0.7, the “Binding of serum 1a to looped/cyclic peptides of protein M of SARS-CoV Urbani” value came to 0.5, the “Binding of serum 1b to linear peptides of protein M of SARS-CoV Urbani” value is reported as 0.5 and the “Binding of serum 1b to looped/cyclic peptides of protein M of SARS-CoV Urbani” value was determined as 0.2. For the same sequence, in assay [2], the “Binding of serum 2 to linear peptides of protein M of SARS-CoV Urbani” value was found to be 0.3, the “Binding of serum 2 to looped/cyclic peptides of protein M of SARS-CoV Urbani” value was 0.4, the “Binding of serum 6 to linear peptides of protein M of SARS-CoV Urbani” value is recorded as 0.3 and the “Binding of serum 6 to looped/cyclic peptides of protein M of SARS-CoV Urbani” value was found to be 0.4. Besides, in assay [2], the “Binding of serum 37 to linear peptides of protein M of SARS-CoV Urbani” value stood at 0.4, the “Binding of serum 37 to looped/cyclic peptides of protein M of SARS-CoV Urbani” value was 0.6, the “Binding of serum 62 to linear peptides of protein M of SARS-CoV Urbani” value came out at 0.4 and the “Binding of serum 62 to looped/cyclic peptides of protein M of SARS-CoV Urbani” value was found to be 0.4. Besides, in assay [2], the “Binding of serum London to linear peptides of protein M of SARS-CoV Urbani” value amounted to 0.3, the “Binding of serum London to looped/cyclic peptides of protein M of SARS-CoV Urbani” value was 0.2, the “Binding of serum SARS-green to linear peptides of protein M of SARS-CoV Urbani” value turned out to be 0.3 and the “Binding of serum SARS-green to looped/cyclic peptides of protein M of SARS-CoV Urbani” value stood at 0.0. In assay [2], the “Binding of serum SARS-yellow to linear peptides of protein M of SARS-CoV Urbani” value was 0.1 and the “Binding of serum SARS-yellow to looped/cyclic peptides of protein M of SARS-CoV Urbani” value was determined as 0.5. Further, in assay [3], the “Rabbit serum linear peptides” value came to 0.1 and the “Rabbit serum looped peptides” value came out at 0.3.
With CKSKNPLLYDANYFV, in assay [1], the “Binding of Control Serum Blood-Bank to Looped peptides” value came to 0.6, the “Binding of Control serum Blood-bank to linear peptides” value was determined as 0.5, the “Binding of Control serum LUMC to linear peptides” value is 0.8 and the “Binding of Control serum LUMC to looped peptides” value was 0.8. Besides, in assay [2], the “Binding of serum 1a to linear peptides of protein X1 of SARS-CoV Urbani” value is listed as 0.8, the “Binding of serum 1a to looped/cyclic peptide (PEPSCAN-ELISA)” value is 0.8, the “Binding of serum 1b to linear peptides of protein X1 of SARS-CoV Urbani” value worked out at 0.5 and the “Binding of serum 1b to looped/cyclic peptide (PEPSCAN-ELISA)” value was found to be 0.6. Also, in assay [2], the “Binding of serum 2 to linear peptides of protein X1 of SARS-CoV Urbani” value came out at 0.5, the “Binding of serum 2 to looped/cyclic peptide (PEPSCAN-ELISA)” value came to 0.5, the “Binding of serum 6 to linear peptides of protein X1 of SARS-CoV Urbani” value is recorded as 0.6 and the “Binding of serum 6 to looped/cyclic peptide (PEPSCAN-ELISA)” value is listed as 0.4. In assay [2], the “Binding of serum 37 to linear peptides of protein X1 of SARS-CoV Urbani” value is 0.7, the “Binding of serum 37 to looped/cyclic peptide (PEPSCAN-ELISA)” value was determined as 0.8, the “Binding of serum 62 to linear peptides of protein X1 of SARS-CoV Urbani” value stood at 0.5 and the “Binding of serum 62 to looped/cyclic peptide (PEPSCAN-ELISA)” value was found to be 0.8. Moreover, in assay [2], the “Binding of serum London to linear peptides of protein X1 of SARS-CoV Urbani” value is on record as 0.3, the “Binding of serum London to looped/cyclic peptide (PEPSCAN-ELISA)” value is 0.2, the “Binding of serum SARS-green to linear peptides of protein X1 of SARS-CoV Urbani” value is recorded as 0.2 and the “Binding of serum SARS-green to looped/cyclic peptide (PEPSCAN-ELISA)” value is 0.3. Moreover, in assay [2], the “Binding of serum SARS-yellow to linear peptides of protein X1 of SARS-CoV Urbani” value came to 0.2 and the “Binding of serum SARS-yellow to looped/cyclic peptide (PEPSCAN-ELISA)” value was 0.5. For the same sequence, in assay [3], the “Binding of a rabbit serum to linear peptides” value worked out at 0.1 and the “Binding of a rabbit serum to looped peptides” value stood at 0.6.
